Test results published in patent US10004701B2, “Methods and compositions for treating infection” (UNIVERSITY OF ROCHESTER, priority 2012, dated 2018).
Counter-ions that a name gives are not always drawn. Like-named read-outs stand apart in the source and are kept apart here. Where a SMILES comes first, the peptide text is derived from it. [ ]: non-standard residue; d: D form. The star is where a group is joined. Sta = CC(C)C[C@H](N)[C@@H](O)CC(=O)O; Isovaleryl = CC(C)CC(=O)*

What was measured:
Experiment in all cases: AK assay 384-well format, Prestwick library screening
P. aeruginosa = assay type: cell-based, Pseudomonas aeruginosa; conditions: 50 μM final drug concentration; for fold induction at 50 µM: Pseudomonas aeruginosa, 3 h
E. coli = assay type: cell-based, Escherichia coli; conditions: 50 μM final drug concentration; for fold induction at 50 µM: Escherichia coli, 3 h
[1] = test system: A. baumannii strain 98-37-09; assay type: cell-based, Acinetobacter baumannii; conditions: 50 μM final drug concentration; for fold induction at 50 µM: Acinetobacter baumannii, 983709, 3 h
E. cloacae = assay type: cell-based, Enterobacter cloacae; conditions: 50 μM final drug concentration; for fold induction at 50 µM: Enterobacter cloacae, 3 h
E. faecium = assay type: cell-based, Enterococcus faecium; conditions: 50 μM final drug concentration; for fold induction at 50 µM: Enterococcus faecium, 3 h
K. pneumoniae = assay type: cell-based, Klebsiella pneumoniae; conditions: 50 μM final drug concentration; for fold induction at 50 µM: Klebsiella pneumoniae, 3 h
[2] = test system: S. aureus strain USA300-0114; assay type: cell-based, Staphylococcus aureus; conditions: 50 μM final drug concentration; for fold induction at 50 µM: Staphylococcus aureus, USA300, 3 h
[3] = planktonic, cutoff for positive-scoring molecules 3-fold increase, read-out: AK-based Prestwick Library Screening Results, P. aeruginosa (fold increase in extracellular AK activity)
[4] = planktonic, cutoff for positive-scoring molecules 3-fold increase, read-out: AK-based Prestwick Library Screening Results, E. coli (fold increase in extracellular AK activity)
[5] = planktonic, cutoff for positive-scoring molecules 3-fold increase, read-out: AK-based Prestwick Library Screening Results, A. baumannii (fold increase in extracellular AK activity)
[6] = planktonic, cutoff for positive-scoring molecules 3-fold increase, read-out: AK-based Prestwick Library Screening Results, E. cloacae (fold increase in extracellular AK activity)
[7] = planktonic, cutoff for positive-scoring molecules 3-fold increase, read-out: AK-based Prestwick Library Screening Results, E. faecium (fold increase in extracellular AK activity)
[8] = planktonic, cutoff for positive-scoring molecules 3-fold increase, read-out: AK-based Prestwick Library Screening Results, K. pneumoniae (fold increase in extracellular AK activity)
[9] = planktonic, cutoff for positive-scoring molecules 3-fold increase, read-out: AK-based Prestwick Library Screening Results, S. aureus (fold increase in extracellular AK activity)
[10] = planktonic P. aeruginosa, cutoff for positive-scoring molecules 3-fold increase, read-out: AK-based Prestwick Library Screening Results, P. aeruginosa (increase in extracellular AK activity)
[11] = planktonic E. coli, cutoff for positive-scoring molecules 3-fold increase, read-out: AK-based Prestwick Library Screening Results, E. coli (increase in extracellular AK activity)
[12] = planktonic A. baumannii, cutoff for positive-scoring molecules 3-fold increase, read-out: AK-based Prestwick Library Screening Results, A. baumannii (increase in extracellular AK activity)
[13] = planktonic E. cloacae, cutoff for positive-scoring molecules 3-fold increase, read-out: AK-based Prestwick Library Screening Results, E. cloacae (increase in extracellular AK activity)
[14] = planktonic E. faecium, cutoff for positive-scoring molecules 3-fold increase, read-out: AK-based Prestwick Library Screening Results, E. faecium (increase in extracellular AK activity)
[15] = planktonic K. pneumoniae, cutoff for positive-scoring molecules 3-fold increase, read-out: AK-based Prestwick Library Screening Results, K. pneumoniae (increase in extracellular AK activity)
[16] = planktonic S. aureus, cutoff for positive-scoring molecules 3-fold increase, read-out: AK-based Prestwick Library Screening Results, S. aureus (increase in extracellular AK activity)

C[N+]1(C)CCOC(O)(c2ccc(-c3ccc(C4(O)C[N+](C)(C)CCO4)cc3)cc2)C1.[Br-].[Br-] (centres unmarked) [Hemicholinium bromide]
AK-based Prestwick Library Screening Results, P. aeruginosa (fold increase in extracellular AK activity) (P. aeruginosa; planktonic, […]): 0.9
AK-based Prestwick Library Screening Results, E. coli (fold increase in extracellular AK activity) (E. coli; planktonic, […]): 1.1
AK-based Prestwick Library Screening Results, A. baumannii (fold increase in extracellular AK activity) ([1]; planktonic, […]): 1.2
AK-based Prestwick Library Screening Results, E. cloacae (fold increase in extracellular AK activity) (E. cloacae; planktonic, […]): 2.0
AK-based Prestwick Library Screening Results, E. faecium (fold increase in extracellular AK activity) (E. faecium; planktonic, […]): 0.9
AK-based Prestwick Library Screening Results, K. pneumoniae (fold increase in extracellular AK activity) (K. pneumoniae; planktonic, […]): 1.0
AK-based Prestwick Library Screening Results, S. aureus (fold increase in extracellular AK activity) ([2]; planktonic, […]): 1.0

CN(C(=O)C(Cl)Cl)c1ccc(OC(=O)c2ccco2)cc1 [Diloxanide furoate]
fold induction at 50 µM (P. aeruginosa; [3]): 1
fold induction at 50 µM (E. coli; [4]): 1
fold induction at 50 µM [1, 5]: 0.9
fold induction at 50 µM (E. cloacae; [6]): 1.2
fold induction at 50 µM (E. faecium; [7]): 0.8
fold induction at 50 µM (K. pneumoniae; [8]): 0.7
fold induction at 50 µM [2, 9]: 0.7

Cc1cnc(NC(=O)C2=C(O)c3ccccc3S(=O)(=O)N2C)s1 [Meloxicam]
fold induction at 50 µM (P. aeruginosa; [10]): 0.9
fold induction at 50 µM (E. coli; [11]): 1
fold induction at 50 µM [1, 12]: 0.9
fold induction at 50 µM (E. cloacae; [13]): 1.2
fold induction at 50 µM (E. faecium; [14]): 0.9
fold induction at 50 µM (K. pneumoniae; [15]): 0.8
fold induction at 50 µM [2, 16]: 2

CC(C)CC(=O)N[C@H](C(=O)N[C@H](C(=O)N[C@@H](CC(C)C)[C@@H](O)CC(=O)N[C@@H](C)C(=O)N[C@@H](CC(C)C)[C@@H](O)CC(=O)O)C(C)C)C(C)C [Pepstatin A] (Isovaleryl-VV[Sta]A[Sta]-OH)
AK-based Prestwick Library Screening Results: P. aeruginosa (increase in extracellular AK activity) (P. aeruginosa; planktonic P. aeruginosa, 384-well, […]): 0.4
AK-based Prestwick Library Screening Results: E. coli (increase in extracellular AK activity) (E. coli; planktonic E. coli, 384-well, […]): 0.5
AK-based Prestwick Library Screening Results: A. baumannii (increase in extracellular AK activity) ([1]; planktonic A. baumannii, 384-well, […]): 0.4
AK-based Prestwick Library Screening Results: E. cloacae (increase in extracellular AK activity) (E. cloacae; planktonic E. cloacae, 384-well, […]): 0.4
AK-based Prestwick Library Screening Results: E. faecium (increase in extracellular AK activity) (E. faecium; planktonic E. faecium, 384-well, […]): 0.8
AK-based Prestwick Library Screening Results: K. pneumoniae (increase in extracellular AK activity) (K. pneumoniae; planktonic K. pneumoniae, 384-well, […]): 0.5
AK-based Prestwick Library Screening Results: S. aureus (increase in extracellular AK activity) ([2]; planktonic S. aureus, 384-well, […]): 0.4

CC1=C(C(=O)O)N2C(=O)[C@@H](NC(=O)[C@H](N)c3ccccc3)[C@H]2SC1 [Cephalexin monohydrate]
fold induction at 50 µM (P. aeruginosa; [10]): 0.8
fold induction at 50 µM (E. coli; [11]): 0.8
fold induction at 50 µM [1, 12]: 0.9
fold induction at 50 µM (E. cloacae; [13]): 1.4
fold induction at 50 µM (E. faecium; [14]): 0.9
fold induction at 50 µM (K. pneumoniae; [15]): 0.7
fold induction at 50 µM [2, 16]: 0.7

COc1ccc(NS(=O)(=O)c2ccc(N)cc2)nn1 [Sulfamethoxypyridazine]
fold induction at 50 µM (P. aeruginosa; planktonic, cutoff for positive 3-fold increase, read-out: AK-based Prestwick Library Screening Results, P. aeruginosa (fold increase in extracellular AK activity)): 0.3
fold induction at 50 µM (E. coli; planktonic, cutoff for positive 3-fold increase, read-out: AK-based Prestwick Library Screening Results, E. coli (fold increase in extracellular AK activity)): 0.5
fold induction at 50 µM ([1]; planktonic, cutoff for positive 3-fold increase, read-out: AK-based Prestwick Library Screening Results, A. baumannii (fold increase in extracellular AK activity)): 0.7
fold induction at 50 µM (E. cloacae; planktonic, cutoff for positive 3-fold increase, read-out: AK-based Prestwick Library Screening Results, E. cloacae (fold increase in extracellular AK activity)): 0.3
fold induction at 50 µM (E. faecium; planktonic, cutoff for positive 3-fold increase, read-out: AK-based Prestwick Library Screening Results, E. faecium (fold increase in extracellular AK activity)): 0.9
fold induction at 50 µM (K. pneumoniae; planktonic, cutoff for positive 3-fold increase, read-out: AK-based Prestwick Library Screening Results, K. pneumoniae (fold increase in extracellular AK activity)): 0.5
fold induction at 50 µM ([2]; planktonic, cutoff for positive 3-fold increase, read-out: AK-based Prestwick Library Screening Results, S. aureus (fold increase in extracellular AK activity)): 0.4

O=c1c2ccccc2[se]n1-c1ccccc1 [Ebselen]
fold induction at 50 µM (P. aeruginosa; [3]): 0.6
fold induction at 50 µM (E. coli; [4]): 0.6
fold induction at 50 µM [1, 5]: 0.7
fold induction at 50 µM (E. cloacae; [6]): 0.7
fold induction at 50 µM (E. faecium; [7]): 0.9
fold induction at 50 µM (K. pneumoniae; [8]): 0.6
fold induction at 50 µM [2, 9]: 0.5

C#C[C@]1(OC(C)=O)CC[C@H]2[C@@H]3CCC4=C[C@@H](OC(C)=O)CC[C@@H]4[C@H]3CC[C@@]21C [Ethynodiol diacetate]
fold induction at 50 µM (P. aeruginosa; [3]): 0.9
fold induction at 50 µM (E. coli; [4]): 0.8
fold induction at 50 µM [1, 5]: 0.9
fold induction at 50 µM (E. cloacae; [6]): 1.1
fold induction at 50 µM (E. faecium; [7]): 0.9
fold induction at 50 µM (K. pneumoniae; [8]): 0.7
fold induction at 50 µM [2, 9]: 0.5

CCCCOC(=O)c1ccc(N)cc1 [Butamben]
fold induction at 50 µM (P. aeruginosa; [3]): 0.9
fold induction at 50 µM (E. coli; [4]): 0.8
fold induction at 50 µM [1, 5]: 0.7
fold induction at 50 µM (E. cloacae; [6]): 1.7
fold induction at 50 µM (E. faecium; [7]): 0.8
fold induction at 50 µM (K. pneumoniae; [8]): 0.6
fold induction at 50 µM [2, 9]: 1.1

CCCCNc1c(C(=O)OCC)c(C)nc2c1cnn2CC [Tracazolate hydrochloride]
fold induction at 50 µM (P. aeruginosa; planktonic P. aeruginosa, positive cutoff 3-fold increase, read-out: AK-based Prestwick library screening result, P. aeruginosa (fold increase in extracellular AK activity)): 0.6
fold induction at 50 µM (E. coli; planktonic E. coli, positive cutoff 3-fold increase, read-out: AK-based Prestwick library screening result, E. coli (fold increase in extracellular AK activity)): 0.5
fold induction at 50 µM ([1]; planktonic A. baumannii, positive cutoff 3-fold increase, read-out: AK-based Prestwick library screening result, A. baumannii (fold increase in extracellular AK activity)): 0.8
fold induction at 50 µM (E. cloacae; planktonic E. cloacae, positive cutoff 3-fold increase, read-out: AK-based Prestwick library screening result, E. cloacae (fold increase in extracellular AK activity)): 0.7
fold induction at 50 µM (E. faecium; planktonic E. faecium, positive cutoff 3-fold increase, read-out: AK-based Prestwick library screening result, E. faecium (fold increase in extracellular AK activity)): 1.1
fold induction at 50 µM (K. pneumoniae; planktonic K. pneumoniae, positive cutoff 3-fold increase, read-out: AK-based Prestwick library screening result, K. pneumoniae (fold increase in extracellular AK activity)): 0.6
fold induction at 50 µM ([2]; planktonic S. aureus, positive cutoff 3-fold increase, read-out: AK-based Prestwick library screening result, S. aureus (fold increase in extracellular AK activity)): 0.5

N[C@H]1CONC1=O [(S)-(−)-Cycloserine]
AK-based Prestwick library screening result, P. aeruginosa (fold increase in extracellular AK activity) (P. aeruginosa; planktonic P. aeruginosa, positive cutoff 3-fold increase): 1.1
AK-based Prestwick library screening result, E. coli (fold increase in extracellular AK activity) (E. coli; planktonic E. coli, positive cutoff 3-fold increase): 1.3
AK-based Prestwick library screening result, A. baumannii (fold increase in extracellular AK activity) ([1]; planktonic A. baumannii, positive cutoff 3-fold increase): 1.1
AK-based Prestwick library screening result, E. cloacae (fold increase in extracellular AK activity) (E. cloacae; planktonic E. cloacae, positive cutoff 3-fold increase): 1.6
AK-based Prestwick library screening result, E. faecium (fold increase in extracellular AK activity) (E. faecium; planktonic E. faecium, positive cutoff 3-fold increase): 1.1
AK-based Prestwick library screening result, K. pneumoniae (fold increase in extracellular AK activity) (K. pneumoniae; planktonic K. pneumoniae, positive cutoff 3-fold increase): 1.0
AK-based Prestwick library screening result, S. aureus (fold increase in extracellular AK activity) ([2]; planktonic S. aureus, positive cutoff 3-fold increase): 1.1
